Measurements published in US20190365878A1, “PHARMACEUTICAL TREATMENTS FOR PREVENTING OR TREATING PANCREATIC CANCER” (THE JOHNS HOPKINS UNIVERSITY, priority 2016, published 2019).

System: Panc02 murine pancreatic adenocarcinoma cells
Test: hemi-splenectomy liver metastasis mouse model, 90 day survival
Type: in vivo, C57/B16 mice
Settings: 28-day dosing scheme, followed 90 days
Source text: Survival Proportions: 90 Day survival of all groups.
The inventors performed hemi-splenectomy with the injection of 2×10^6 Panc02 murine pancreatic adenocarcinoma cells on C57/B16 mice, aged 9-10 weeks to model metastasis of pancreatic tumor cells to the liver. Mice were divided into treatment groups and dosed with cyclophosphamide and GVAX vaccine as well as an oral IDO1 inhibitor PF-06840003, according to a 28-day dosing scheme.
An oral methocel vehicle was given as a placebo treatment. The IDO inhibitor PF-06840003 and oral methocel compounds were administered twice daily by oral gavage, starting on post-operative day 3 and extending through post-operative day 28. Cyclophosphamide was administered on post-operative day 3. GVAX vaccine was administered on post-operative days 4, 7, 14 and 21. Mice were followed for survival for 90 days.

Structure (SMILES): O=C1CC(c2c[nH]c3ccc(F)cc23)C(=O)N1 (stereo not shown) [PF-06840003]
- survival: no significant effect on survival
